One compound from PMC12111771, “Structural Characterization and Bioactivity Evaluation of Selenium-Modified Dihydromyricetin from Vine Tea” (Foods, 2025) can be followed below.

Structures are written as SMILES. In brackets after ≈: the same amount, converted by molar mass.

Experiment [1] has as its target α-amylase (α-AMY). Kind of experiment: starch hydrolysis DNS assay with commercial enzyme, absorbance at […] nm. In kind it is biochemical.
The target of experiment [2] is α-glucosidase (α-GLU). Briefly: PNPG hydrolysis assay with commercial enzyme, absorbance at […] nm. In kind it is biochemical.

Take `O=C1c2c(O)cc(O)cc2O[C@H](c2cc(O)c(O)c(O)c2)[C@H]1O` [DHM, Dihydromyricetin]: the 50% inhibitory concentration (IC50) in experiment [1] came out at 4614 µg/mL (≈ 14.4 mM); in experiment [2], 96.12 µg/mL (≈ 0.3 mM).
